The source of these data is paper PMC6331893, “Autodisplay of Human Hyaluronidase Hyal-1 on Escherichia coli and Identification of Plant-Derived Enzyme Inhibitors” (Molecules, 2015).

Like-named read-outs stand apart in the source and are kept apart here.

In this test the target is T1, human hyaluronidase Hyal-1 (Homo sapiens, UniProt Q12794).
T1 construct: gene HYAL1
T1 sequence (Q12794 22-435): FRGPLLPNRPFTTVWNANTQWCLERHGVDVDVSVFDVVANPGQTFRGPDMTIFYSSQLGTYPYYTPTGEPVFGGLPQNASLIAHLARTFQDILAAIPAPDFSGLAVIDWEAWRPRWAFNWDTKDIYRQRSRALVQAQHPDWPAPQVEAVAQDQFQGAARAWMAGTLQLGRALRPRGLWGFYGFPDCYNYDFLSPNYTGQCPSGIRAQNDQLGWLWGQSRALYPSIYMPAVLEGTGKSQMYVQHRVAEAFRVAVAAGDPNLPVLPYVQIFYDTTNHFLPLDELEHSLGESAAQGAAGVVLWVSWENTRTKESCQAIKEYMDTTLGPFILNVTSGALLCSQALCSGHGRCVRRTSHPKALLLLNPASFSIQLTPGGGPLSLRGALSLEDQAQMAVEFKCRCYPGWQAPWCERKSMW
In words: whole-cell "stains-all" hyaluronidase activity assay with surface-displayed Hyal-1, dose-response. The format is cell-based.

As for gypsophila saponin 2, the IC50 (read-out: IC50 Value) was 108 µM.

In turn, `CC1(C)[C@@H](O[C@H]2O[C@H](C(=O)O)[C@@H](O)[C@H](O)[C@H]2O[C@@H]2O[C@H](C(=O)O)[C@@H](O)[C@H](O)[C@H]2O)CC[C@]2(C)[C@H]3C(=O)C=C4[C@@H]5C[C@@](C)(C(=O)O)CC[C@]5(C)CC[C@@]4(C)[C@]3(C)CC[C@@H]12` [glycyrrhizic acid] displayed an IC50 of 177 µM.

As for `C[C@@H]1O[C@@H](O[C@H]2[C@H](OC(=O)[C@]34CCC(C)(C)C[C@H]3C3=CC[C@@H]5[C@@]6(C)CC[C@H](O[C@H]7O[C@H](C(=O)O)[C@@H](O)[C@H](O[C@@H]8OC[C@@H](O)[C@H](O)[C@H]8O)[C@H]7O[C@@H]7O[C@H](CO)[C@H](O)[C@H](O)[C@H]7O)[C@@](C)(C=O)[C@@H]6CC[C@@]5(C)[C@]3(C)CC4)O[C@H](C)[C@H](O[C@@H]3O[C@H](C)[C@@H](O)[C@H](O)[C@H]3O)[C@@H]2O)[C@H](O)[C@H](O)[C@H]1O[C@@H]1OC[C@@H](O)[C@H](O[C@@H]2OC[C@@H](O)[C@H](O)[C@H]2O)[C@H]1O` [SA1641], the IC50 (read-out: IC50 Value) was 296 µM.
